Square brackets hold non-standard residues; d marks the D form. Peptide text beside a SMILES is read from it.
Biological target: calmodulin (Homo sapiens, UniProt P0DP23)
Test: calcium-dependent phosphodiesterase assay (inhibition of calmodulin activity)
Format: biochemical
Settings: for inhibition at 50 µM: inhibition of calmodulin activation of phosphodiesterase at 50 μM peptide, PDE without calmodulin = 100%, Calmo = 0%; for IC50: concentration inhibiting 50% of calmodulin activity, assayed at 75 μM, 50 μM and 12.5 μM

Structure (SMILES) | inhibition at 50 µM | IC50
CC(=O)N[C@H](CC(C)C)C(=O)N[C@H](CCC(N)=O)C(=O)N[C@H](CCCNC(=N)N)C(=O)N[C@H](Cc1c[nH]cn1)C(=O)N[C@H](Cc1c[nH]cn1)C(=O)N[C@H](CCCNC(=N)N)C(N)=O [Ac-(D)Leu-(D)Gln-(D)Arg-(D)His-(D)His-(D)Arg-NH2] (Ac-[dL][dQ][dR][dH][dH][dR]-NH2) | 63.2% | 
CC(=O)N[C@H](CC(C)C)C(=O)N[C@H](CCC(N)=O)C(=O)N[C@H](CCCNC(=N)N)C(=O)N[C@H](Cc1c[nH]cn1)C(=O)N[C@H](Cc1c[nH]cn1)C(=O)N[C@H](Cc1c[nH]c2ccccc12)C(N)=O [Ac-(D)Leu-(D)Gln-(D)Arg-(D)His-(D)His-(D)Trp-NH2] (Ac-[dL][dQ][dR][dH][dH][dW]-NH2) | 79% | 
CC(=O)N[C@H](CC(C)C)C(=O)N[C@H](CCC(N)=O)C(=O)N[C@H](CCCNC(=N)N)C(=O)N[C@H](Cc1c[nH]cn1)C(=O)N[C@H](CC(C)C)C(=O)N[C@H](CCCNC(=N)N)C(N)=O [Ac-(D)Leu-(D)Gln-(D)Arg-(D)His-(D)Leu-(D)Arg-NH2] (Ac-[dL][dQ][dR][dH][dL][dR]-NH2) | 64.5% | 
CC(=O)N[C@H](CC(C)C)C(=O)N[C@H](CCC(N)=O)C(=O)N[C@H](CCCNC(=N)N)C(=O)N[C@H](Cc1c[nH]cn1)C(=O)N[C@H](CC(C)C)C(=O)N[C@H](Cc1c[nH]c2ccccc12)C(N)=O [Ac-(D)Leu-(D)Gln-(D)Arg-(D)His-(D)Leu-(D)Trp-NH2] (Ac-[dL][dQ][dR][dH][dL][dW]-NH2) | 44.7% | 
CC[C@@H](C)[C@@H](NC(=O)[C@@H](CCCNC(=N)N)NC(=O)[C@@H](CCC(N)=O)NC(=O)[C@@H](CC(C)C)NC(C)=O)C(=O)N[C@H](Cc1c[nH]cn1)C(=O)N[C@H](CCCNC(=N)N)C(N)=O [Ac-(D)Leu-(D)Gln-(D)Arg-(D)Ile-(D)His-(D)Arg-NH2] (Ac-[dL][dQ][dR][dI][dH][dR]-NH2) | 21.1% | > 50 µM
CC[C@@H](C)[C@@H](NC(=O)[C@@H](CCCNC(=N)N)NC(=O)[C@@H](CCC(N)=O)NC(=O)[C@@H](CC(C)C)NC(C)=O)C(=O)N[C@H](Cc1c[nH]cn1)C(=O)N[C@H](Cc1c[nH]c2ccccc12)C(N)=O [Ac-(D)Leu-(D)Gln-(D)Arg-(D)Ile-(D)His-(D)Trp-NH2] (Ac-[dL][dQ][dR][dI][dH][dW]-NH2) | 34.2% | 40 µM
CC[C@@H](C)[C@@H](NC(=O)[C@@H](CCCNC(=N)N)NC(=O)[C@@H](CCC(N)=O)NC(=O)[C@@H](CC(C)C)NC(C)=O)C(=O)N[C@H](CC(C)C)C(=O)N[C@H](CCCNC(=N)N)C(N)=O [Ac-(D)Leu-(D)Gln-(D)Arg-(D)Ile-(D)Leu-(D)Arg-NH2] (Ac-[dL][dQ][dR][dI][dL][dR]-NH2) | -13.2% | > 50 µM
CC[C@@H](C)[C@@H](NC(=O)[C@@H](CCCNC(=N)N)NC(=O)[C@@H](CCC(N)=O)NC(=O)[C@@H](CC(C)C)NC(C)=O)C(=O)N[C@H](CC(C)C)C(=O)N[C@H](Cc1c[nH]c2ccccc12)C(N)=O [Ac-(D)Leu-(D)Gln-(D)Arg-(D)Ile-(D)Leu-(D)Trp-NH2] (Ac-[dL][dQ][dR][dI][dL][dW]-NH2) | 44.5% | > 50 µM
CC[C@@H](C)[C@@H](NC(=O)[C@@H](CCC(N)=O)NC(=O)[C@@H](CC(C)C)NC(C)=O)C(=O)N[C@H](Cc1c[nH]cn1)C(=O)N[C@H](Cc1c[nH]cn1)C(=O)N[C@H](CCCNC(=N)N)C(N)=O [Ac-(D)Leu-(D)Gln-(D)Ile-(D)His-(D)His-(D)Arg-NH2] (Ac-[dL][dQ][dI][dH][dH][dR]-NH2) | 43.4% | 
CC[C@@H](C)[C@@H](NC(=O)[C@@H](CCC(N)=O)NC(=O)[C@@H](CC(C)C)NC(C)=O)C(=O)N[C@H](Cc1c[nH]cn1)C(=O)N[C@H](Cc1c[nH]cn1)C(=O)N[C@H](Cc1c[nH]c2ccccc12)C(N)=O [Ac-(D)Leu-(D)Gln-(D)Ile-(D)His-(D)His-(D)Trp-NH2] (Ac-[dL][dQ][dI][dH][dH][dW]-NH2) | 60.5% | 76 µM
CC[C@@H](C)[C@@H](NC(=O)[C@@H](CCC(N)=O)NC(=O)[C@@H](CC(C)C)NC(C)=O)C(=O)N[C@H](Cc1c[nH]cn1)C(=O)N[C@H](CC(C)C)C(=O)N[C@H](CCCNC(=N)N)C(N)=O [Ac-(D)Leu-(D)Gln-(D)Ile-(D)His-(D)Leu-(D)Arg-NH2] (Ac-[dL][dQ][dI][dH][dL][dR]-NH2) | 28.9% | 
CC[C@@H](C)[C@@H](NC(=O)[C@@H](CCC(N)=O)NC(=O)[C@@H](CC(C)C)NC(C)=O)C(=O)N[C@H](Cc1c[nH]cn1)C(=O)N[C@H](CC(C)C)C(=O)N[C@H](Cc1c[nH]c2ccccc12)C(N)=O [Ac-(D)Leu-(D)Gln-(D)Ile-(D)His-(D)Leu-(D)Trp-NH2] (Ac-[dL][dQ][dI][dH][dL][dW]-NH2) | 46% | 
CC[C@@H](C)[C@@H](NC(=O)[C@@H](CCC(N)=O)NC(=O)[C@@H](CC(C)C)NC(C)=O)C(=O)N[C@@H](C(=O)N[C@H](Cc1c[nH]cn1)C(=O)N[C@H](CCCNC(=N)N)C(N)=O)[C@H](C)CC [Ac-(D)Leu-(D)Gln-(D)Ile-(D)Ile-(D)His-(D)Arg-NH2] (Ac-[dL][dQ][dI][dI][dH][dR]-NH2) | 43.4% | 

Now from value to compound:

inhibition at 50 µM | IC50 | Structure (SMILES)
35.5% |  | CC[C@@H](C)[C@@H](NC(=O)[C@@H](CCC(N)=O)NC(=O)[C@@H](CC(C)C)NC(C)=O)C(=O)N[C@@H](C(=O)N[C@H](Cc1c[nH]cn1)C(=O)N[C@H](Cc1c[nH]c2ccccc12)C(N)=O)[C@H](C)CC [Ac-(D)Leu-(D)Gln-(D)Ile-(D)Ile-(D)His-(D)Trp-NH2] (Ac-[dL][dQ][dI][dI][dH][dW]-NH2)
15.8% | > 50 µM | CC[C@@H](C)[C@@H](NC(=O)[C@@H](CCC(N)=O)NC(=O)[C@@H](CC(C)C)NC(C)=O)C(=O)N[C@@H](C(=O)N[C@H](CC(C)C)C(=O)N[C@H](CCCNC(=N)N)C(N)=O)[C@H](C)CC [Ac-(D)Leu-(D)Gln-(D)Ile-(D)Ile-(D)Leu-(D)Arg-NH2] (Ac-[dL][dQ][dI][dI][dL][dR]-NH2)
47.4% | > 50 µM | CC[C@@H](C)[C@@H](NC(=O)[C@@H](CCC(N)=O)NC(=O)[C@@H](CC(C)C)NC(C)=O)C(=O)N[C@@H](C(=O)N[C@H](CC(C)C)C(=O)N[C@H](Cc1c[nH]c2ccccc12)C(N)=O)[C@H](C)CC [Ac-(D)Leu-(D)Gln-(D)Ile-(D)Ile-(D)Leu-(D)Trp-NH2] (Ac-[dL][dQ][dI][dI][dL][dW]-NH2)
57.9% |  | CC(=O)N[C@H](CC(C)C)C(=O)N[C@H](Cc1c[nH]c2ccccc12)C(=O)N[C@H](CCCNC(=N)N)C(=O)N[C@H](Cc1c[nH]cn1)C(=O)N[C@H](Cc1c[nH]cn1)C(=O)N[C@H](CCCNC(=N)N)C(N)=O [Ac-(D)Leu-(D)Trp-(D)Arg-(D)His-(D)His-(D)Arg-NH2] (Ac-[dL][dW][dR][dH][dH][dR]-NH2)
36.8% |  | CC(=O)N[C@H](CC(C)C)C(=O)N[C@H](Cc1c[nH]c2ccccc12)C(=O)N[C@H](CCCNC(=N)N)C(=O)N[C@H](Cc1c[nH]cn1)C(=O)N[C@H](Cc1c[nH]cn1)C(=O)N[C@H](Cc1c[nH]c2ccccc12)C(N)=O [Ac-(D)Leu-(D)Trp-(D)Arg-(D)His-(D)His-(D)Trp-NH2] (Ac-[dL][dW][dR][dH][dH][dW]-NH2)
39.5% | > 50 µM | CC(=O)N[C@H](CC(C)C)C(=O)N[C@H](Cc1c[nH]c2ccccc12)C(=O)N[C@H](CCCNC(=N)N)C(=O)N[C@H](Cc1c[nH]cn1)C(=O)N[C@H](CC(C)C)C(=O)N[C@H](CCCNC(=N)N)C(N)=O [Ac-(D)Leu-(D)Trp-(D)Arg-(D)His-(D)Leu-(D)Arg--NH2] (Ac-[dL][dW][dR][dH][dL][dR]-NH2)
90.8% | ≤ 10 µM | CC(=O)N[C@H](CC(C)C)C(=O)N[C@H](Cc1c[nH]c2ccccc12)C(=O)N[C@H](CCCNC(=N)N)C(=O)N[C@H](Cc1c[nH]cn1)C(=O)N[C@H](CC(C)C)C(=O)N[C@H](Cc1c[nH]c2ccccc12)C(N)=O [Ac-(D)Leu-(D)Trp-(D)Arg-(D)His-(D)Leu-(D)Trp-NH2] (Ac-[dL][dW][dR][dH][dL][dW]-NH2)
68.4% | 32 µM | CC[C@@H](C)[C@@H](NC(=O)[C@@H](CCCNC(=N)N)NC(=O)[C@@H](Cc1c[nH]c2ccccc12)NC(=O)[C@@H](CC(C)C)NC(C)=O)C(=O)N[C@H](Cc1c[nH]cn1)C(=O)N[C@H](CCCNC(=N)N)C(N)=O [Ac-(D)Leu-(D)Trp-(D)Arg-(D)Ile-(D)His-(D)Arg-NH2] (Ac-[dL][dW][dR][dI][dH][dR]-NH2)
52.6% |  | CC[C@@H](C)[C@@H](NC(=O)[C@@H](CCCNC(=N)N)NC(=O)[C@@H](Cc1c[nH]c2ccccc12)NC(=O)[C@@H](CC(C)C)NC(C)=O)C(=O)N[C@H](Cc1c[nH]cn1)C(=O)N[C@H](Cc1c[nH]c2ccccc12)C(N)=O [Ac-(D)Leu-(D)Trp-(D)Arg-(D)Ile-(D)His-(D)Trp-NH2] (Ac-[dL][dW][dR][dI][dH][dW]-NH2)
107% | 15 µM | CC[C@@H](C)[C@@H](NC(=O)[C@@H](CCCNC(=N)N)NC(=O)[C@@H](Cc1c[nH]c2ccccc12)NC(=O)[C@@H](CC(C)C)NC(C)=O)C(=O)N[C@H](CC(C)C)C(=O)N[C@H](CCCNC(=N)N)C(N)=O [Ac-(D)Leu-(D)Trp-(D)Arg-(D)Ile-(D)Leu-(D)Arg-NH2] (Ac-[dL][dW][dR][dI][dL][dR]-NH2)
101% | 15 µM | CC[C@@H](C)[C@@H](NC(=O)[C@@H](CCCNC(=N)N)NC(=O)[C@@H](Cc1c[nH]c2ccccc12)NC(=O)[C@@H](CC(C)C)NC(C)=O)C(=O)N[C@H](CC(C)C)C(=O)N[C@H](Cc1c[nH]c2ccccc12)C(N)=O [Ac-(D)Leu-(D)Trp-(D)Arg-(D)Ile-(D)Leu-(D)Trp-NH2] (Ac-[dL][dW][dR][dI][dL][dW]-NH2)
103% | 24 µM | CC[C@@H](C)[C@@H](NC(=O)[C@@H](Cc1c[nH]c2ccccc12)NC(=O)[C@@H](CC(C)C)NC(C)=O)C(=O)N[C@H](Cc1c[nH]cn1)C(=O)N[C@H](Cc1c[nH]cn1)C(=O)N[C@H](Cc1c[nH]c2ccccc12)C(N)=O [Ac-(D)Leu-(D)Trp-(D)Ile-(D)His-(D)His-(D)Trp-NH2] (Ac-[dL][dW][dI][dH][dH][dW]-NH2)
